Laboratory results as given in ChEMBL document CHEMBL1201862, “PubChem BioAssay data set” (2004).
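Assay format: 96-well plates, 48-hour exposure. GI50 marks 50% less growth.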 Activity calls are given as the source filed them. Rule as the data show it: active = GI50 up to about 1.1 µM and inactive = higher.

Assays:
Assay in all cases: NCI tumour cell line growth inhibition, 48 h
KM-20L2 = system: KM-20L2
DMS-114 = system: DMS-114
DLD-1 = system: DLD-1
LXFL 529 = system: LXFL 529
M19-MEL = system: M19-MEL
DMS-273 = system: DMS-273
SNB-78 = system: SNB-78
XF498 = system: XF498
RXF 631 = system: RXF 631

Measured: GI50

Cc1ccc(S(=O)(=O)N(/N=C(\N)Oc2ccc(Cl)cc2)C(=N)Oc2ccc(Cl)cc2)cc1
inactive: KM-20L2 > 100 µM | DMS-114 > 100 µM | DLD-1 > 100 µM | LXFL 529 > 100 µM | M19-MEL > 100 µM | DMS-273 > 100 µM | SNB-78 > 100 µM | XF498 > 100 µM

CCOC(=O)N1C/C(=C\c2ccccc2)C(=O)/C(=C/c2ccccc2)C1
inactive: KM-20L2 7.71 µM | DMS-114 3.27 µM | DLD-1 2.56 µM | LXFL 529 4.99 µM | M19-MEL 1.57 µM | DMS-273 2.34 µM | SNB-78 19.8 µM | XF498 12.8 µM

COc1ccc(NC(=O)CC(=O)n2nc(-c3ccccc3)c(/N=N/c3ccccc3C)c2-c2ccccc2)cc1
inactive: KM-20L2 > 100 µM | DMS-114 24.3 µM | DLD-1 21.6 µM | RXF 631 33.7 µM | LXFL 529 40 µM | M19-MEL 51.8 µM | DMS-273 16.5 µM | XF498 19.3 µM

O=C1NC(=S)NC(=O)C1=Cc1ccc([N+](=O)[O-])o1
inactive: KM-20L2 20.1 µM | DMS-114 17.8 µM | DLD-1 16 µM | RXF 631 19.3 µM | LXFL 529 16.5 µM | M19-MEL 19.6 µM | DMS-273 18.9 µM | SNB-78 23.5 µM | XF498 31.6 µM

C/C(=C\Cc1cc(O)ccc1O)CCc1c(C)cc(O)c(C=O)c1C [PANICEIN B3]
inactive: KM-20L2 39.9 µM | DMS-114 14.7 µM | DLD-1 21.6 µM | LXFL 529 15.4 µM | DMS-273 20.6 µM | XF498 18.8 µM

[O-][S+]1CSSC1
inactive: KM-20L2 22.8 µM | DMS-114 4.98 µM | DLD-1 18.7 µM | RXF 631 12.3 µM | LXFL 529 13.5 µM | M19-MEL 2.05 µM | DMS-273 10.9 µM | SNB-78 20.3 µM | XF498 15.7 µM

COc1cc2c3cc1Oc1c(OC)c(OC)cc4c1[C@@H](Cc1ccc(O)c(c1)Oc1ccc(cc1)C[C@@H]3N(C)CC2)N(C)CC4.c1ccccc1
inactive: KM-20L2 5.32 µM | DLD-1 19.1 µM | LXFL 529 12.4 µM | M19-MEL 13.4 µM | DMS-273 16.3 µM | SNB-78 47.1 µM | XF498 11.4 µM

c1cc(N(CCn2cccn2)CCn2cccn2)cc(N(CCn2cccn2)CCn2cccn2)c1
inactive: KM-20L2 > 100 µM | DMS-114 > 100 µM | DLD-1 > 100 µM | RXF 631 > 100 µM | LXFL 529 > 100 µM | M19-MEL > 100 µM | DMS-273 > 100 µM | SNB-78 > 100 µM | XF498 77.6 µM

O=C1CC(CC(=O)C2CCCCC2=O)C(=O)N1 (stereo not drawn)
inactive: KM-20L2 > 100 µM | DMS-114 > 100 µM | DLD-1 > 100 µM | LXFL 529 > 100 µM | M19-MEL > 100 µM | DMS-273 > 100 µM | SNB-78 > 100 µM | XF498 > 100 µM

O=C1NC2(CCCC2)C2CCCCC12O (stereo not drawn)
inactive: DMS-114 > 100 µM | DLD-1 > 100 µM | RXF 631 > 100 µM | LXFL 529 > 100 µM | M19-MEL > 100 µM | DMS-273 > 100 µM | SNB-78 > 100 µM | XF498 > 100 µM

CC1(C)CC(N2CCN(C3CC(C)(C)NC(C)(C)C3)CC2)CC(C)(C)N1
inactive: KM-20L2 > 100 µM | DMS-114 > 100 µM | DLD-1 > 100 µM | RXF 631 > 100 µM | LXFL 529 > 100 µM | DMS-273 > 100 µM | SNB-78 > 100 µM | XF498 > 100 µM

O=C(/C=C/c1ccc(Cl)c(Cl)c1)c1ccccc1Cl
inactive: KM-20L2 9.91 µM | DMS-114 5.3 µM | DLD-1 5.12 µM | RXF 631 15.9 µM | LXFL 529 7.41 µM | M19-MEL 7.18 µM | DMS-273 6.47 µM | SNB-78 15.5 µM | XF498 19.2 µM

CCOC(=O)/C(=C/c1cc(OC)ccc1OC)CC(=O)O
inactive: KM-20L2 > 100 µM | DMS-114 > 100 µM | DLD-1 > 31.6 µM | RXF 631 > 100 µM | LXFL 529 > 100 µM | M19-MEL > 100 µM | DMS-273 > 100 µM | SNB-78 > 100 µM | XF498 > 39.3 µM

COc1cc(C2C(Cl)C(=O)N2n2cnc3ccccc3c2=O)ccc1O (stereo not drawn)
inactive: KM-20L2 > 100 µM | DMS-114 89.1 µM | DLD-1 > 100 µM | LXFL 529 > 100 µM | M19-MEL > 100 µM | DMS-273 > 100 µM | SNB-78 > 100 µM

COc1ccc(-c2oc3c(OC)c(OC)c(OC)c(O)c3c(=O)c2OC)cc1O
inactive: KM-20L2 12.1 µM | RXF 631 6.07 µM
active: DMS-114 0.0277 µM | DLD-1 0.432 µM | LXFL 529 0.0582 µM | M19-MEL 0.346 µM | DMS-273 < 0.01 µM | SNB-78 0.0735 µM | XF498 0.279 µM

Oc1ccncc1-c1cnccc1O
inactive: DMS-114 > 100 µM | DLD-1 > 100 µM | LXFL 529 > 100 µM | M19-MEL > 100 µM | DMS-273 > 100 µM | SNB-78 > 100 µM

COc1cc(/C=N/N=C(\N)NO)c(Cl)cc1O
inactive: DMS-114 24.3 µM | DLD-1 > 10 µM | LXFL 529 > 100 µM | M19-MEL 26.6 µM | SNB-78 > 100 µM

C=C(COC(C)=O)CC(OC(C)=O)c1ccccc1 (stereo not drawn)
inactive: KM-20L2 > 100 µM | DMS-114 > 100 µM | DLD-1 > 100 µM | LXFL 529 > 100 µM | M19-MEL > 100 µM | DMS-273 > 100 µM | SNB-78 > 100 µM | XF498 > 100 µM

O=[N+]([O-])c1ccc(/C=C/c2csnn2)cc1
inactive: DMS-114 > 100 µM | DLD-1 > 100 µM | LXFL 529 > 100 µM | M19-MEL > 100 µM | SNB-78 > 100 µM

C#CCN(Cc1ccc2nc(-c3ccccc3)c(N)nc2c1)c1cc(OC)c(OC)c(OC)c1
inactive: KM-20L2 41.3 µM | DMS-114 14 µM | LXFL 529 19.3 µM | M19-MEL 27 µM | DMS-273 22.1 µM | SNB-78 22.9 µM | XF498 30 µM
